Results as given in patent US8124647B2 (priority 2002, dated 2012).

Target: T1, human androgen receptor (Homo sapiens, UniProt P10275)
T1 construct: expressed in transfected cells; host or cells: CHO cells, cell line CHO-AR-pMMTV-LUC 1G12-A5-CA
T1 sequence (P10275 1-920): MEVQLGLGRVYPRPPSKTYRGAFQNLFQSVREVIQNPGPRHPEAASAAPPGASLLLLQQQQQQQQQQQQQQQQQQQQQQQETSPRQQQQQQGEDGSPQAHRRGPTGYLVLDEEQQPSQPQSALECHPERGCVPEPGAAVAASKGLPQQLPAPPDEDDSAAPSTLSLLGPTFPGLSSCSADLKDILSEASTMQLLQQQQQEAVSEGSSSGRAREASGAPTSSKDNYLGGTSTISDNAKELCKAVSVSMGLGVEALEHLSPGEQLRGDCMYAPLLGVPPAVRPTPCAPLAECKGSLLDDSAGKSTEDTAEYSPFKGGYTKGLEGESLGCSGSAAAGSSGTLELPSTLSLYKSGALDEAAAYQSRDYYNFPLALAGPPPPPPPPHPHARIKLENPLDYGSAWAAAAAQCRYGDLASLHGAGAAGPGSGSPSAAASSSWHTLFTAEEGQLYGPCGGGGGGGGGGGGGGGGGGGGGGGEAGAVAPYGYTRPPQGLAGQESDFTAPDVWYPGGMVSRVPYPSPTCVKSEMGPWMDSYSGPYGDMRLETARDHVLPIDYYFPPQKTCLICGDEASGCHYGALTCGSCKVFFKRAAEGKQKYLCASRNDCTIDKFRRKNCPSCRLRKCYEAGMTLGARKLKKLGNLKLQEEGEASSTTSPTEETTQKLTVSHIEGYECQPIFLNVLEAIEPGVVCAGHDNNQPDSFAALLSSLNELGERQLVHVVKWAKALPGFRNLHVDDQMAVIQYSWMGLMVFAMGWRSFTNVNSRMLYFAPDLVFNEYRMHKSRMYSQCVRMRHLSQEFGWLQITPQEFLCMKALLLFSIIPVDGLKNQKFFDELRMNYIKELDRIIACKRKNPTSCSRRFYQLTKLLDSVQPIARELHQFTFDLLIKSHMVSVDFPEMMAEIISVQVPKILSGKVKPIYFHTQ
Experiment: androgenic activity (EC50, potency, efficacy), transactivation bioassay in CHO-AR-pMMTV-LUC cells in the presence of 0.1 μmol/l onapristone (Table 5)
Assay type: cell-based
Conditions: CHO-AR-pMMTV-LUC cells; for Emax: read-out: ago efficacy; for ago potency: potency expressed as percentage of DHT activity, in the presence of 0.1 μmol/l onapristone
Method: The androgenic activity (EC50, potency, and efficacy) of the compounds in Table 5 was determined in an in vitro bioassay of Chinese hamster ovary (CHO) cells stably transfected with the human androgen receptor expression plasmid and a reporter plasmid in which the MMTV promoter is linked to the luciferase reporter gene. The cell line CHO-AR-pMMTV-LUC 1G12-A5-CA is described in Schoonen et al. (J. Steroid Biochem. Moles. Biol. […]; 74: 213-222). The androgen receptor activity of compounds was determined in the presence of 0.1 μmol/l onapristone. The maximal efficacy in the presence of 100 nmol/l DHT was set as 100%. The potencies are expressed as percentage of DHT activity.

[1] = maximal intrinsic activity, activity in the presence of 100 nM DHT set at 1.00, 0.1 μmol/l onapristone

Structure (SMILES) | Emax [1] [%] | ago potency | ago efficacy [1]
COc1ccc2c(Sc3ccccc3[N+](=O)[O-])cn(Cc3ccncn3)c2c1 [Compound 116, 6-Methoxy-3-(2-nitro-phenylsulfanyl)-1-pyrimidin-4-ylmethyl-1H-indole] | 50 to 80 | + (between 1% and 5%) | –
COc1ccc2c(Sc3ccccc3[N+](=O)[O-])cn(Cc3cnccn3)c2c1 [Compound 117, 6-Methoxy-3-(2-nitro-phenylsulfanyl)-1-pyrazin-2-ylmethyl-1H-indole] | 50 to 80 | + (between 1% and 5%) | –
O=CNc1ccc2c(Sc3ccccc3[N+](=O)[O-])cn(Cc3cncnc3)c2c1 [Compound 118, N-[3-(2-Nitro-phenylsulfanyl)-1-pyrimidin-5-ylmethyl-1H-indol-6-yl]-formamide] | 50 to 80 | ++ (>5%) | –
N#Cc1ccc2c(Sc3ccccc3[N+](=O)[O-])cn(Cc3ccccn3)c2c1 [Compound 119, 3-(2-Nitro-phenylsulfanyl)-1-pyridin-2-ylmethyl-1H-indole-6-carbonitrile] | > 80 | ++ (>5%) | –
Cl.N#Cc1ccc2c(Sc3ccccc3[N+](=O)[O-])cn(Cc3ccccn3)c2c1 [Compound 120, 3-(2-Nitro-phenylsulfanyl)-1-pyridin-2-ylmethyl-1H-indol-6-carbonitrile monohydrochloride] | – | ++ (>5%) | ++ (≧0.80)
N#Cc1ccc2c(Sc3ccccc3[N+](=O)[O-])cn(Cc3cccnc3)c2c1 [Compound 121, 3-(2-Nitro-phenylsulfanyl)-1-pyridin-3-ylmethyl-1H-indole-6-carbonitrile] | > 80 | + (between 1% and 5%) | –
N#Cc1ccc2c(Sc3ccccc3[N+](=O)[O-])cn(Cc3ccncc3)c2c1 [Compound 122, 3-(2-Nitro-phenylsulfanyl)-1-pyridin-4-ylmethyl-1H-indole-6-carbonitrile] | 50 to 80 | + (between 1% and 5%) | –
N#Cc1ccc2c(Sc3ccccc3[N+](=O)[O-])cn(Cc3cncnc3)c2c1 [Compound 123, 3-(2-Nitro-phenylsulfanyl)-1-pyrimidin-5-ylmethyl-1H-indole-6-carbonitrile] | > 80 | ++ (>5%) | –
N#Cc1ccc2c(Sc3ccccc3[N+](=O)[O-])cn(Cc3ccncn3)c2c1 [Compound 124, 3-(2-Nitro-phenylsulfanyl)-1-pyrimidin-4-ylmethyl-1H-indole-6-carbonitrile] | > 80 | ++ (>5%) | –
N#Cc1cccc(Cn2cc(Sc3ccccc3[N+](=O)[O-])c3ccc(C#N)cc32)c1 [Compound 125, 1-(3-Cyano-benzyl)-3-(2-nitro-phenylsulfanyl)-1H-indole-6-carbonitrile] | > 80 | + (between 1% and 5%) | –
